The record followed here is patent US11389456B2, “Compounds and methods for treating oxalate-related diseases” (OxaluRx, Inc., priority 2018, dated 2022).

A word on the solubility: it is the dissolved amount per volume that the medium holds. Broadly, the IC50 is the midpoint of a concentration-inhibition curve. The CLint scaled is the capacity of the preparation to metabolise the compound, expressed as a volume cleared per time. A higher CLint scaled goes with rapid turnover.

Data set [1] in a line: Protein binding (plasma equilibrium dialysis). The format is in vitro ADME. The conditions noted are these: 5 hours at 37° C.; for fraction unbound at 5 h, 1 μM: read-out: Protein Binding Fraction Bound (converted). As for the experimental part: For testing protein binding of stock compounds solubilized in DMSO, spiking solutions of test and reference compounds were prepared. Solution A (0.5 mM) was prepared by adding 10 μL of 10 mM stock solution into 190 μL of DMSO. Solution B (0.02 mM) was prepared by adding 8 μL of Solution A into 192 μL of 0.05 M sodium phosphate buffer. The final DMSO concentration in Solution B was 4%.
To prepare test and reference compounds in plasma, a 96-well plate with 380 μL aliquots of plasma in the wells designed for plasma and buffer, respectively. Twenty μL of Solution B (0.02 mM of test and reference compounds) were spiked into the pre-loaded plasma in the 96-well plate. The final test concentration is 1 μM containing 0.2% DMSO.
For dialysis sample loading a plasma again buffer system was prepared by applying aliquots of 100 μL of blank dialysis buffer to the receiver side of dialysis chambers and then applying aliquots of 100 μL of the plasma spiked with test and reference compounds to the donor side of the dialysis chamber. A 25-μL aliquot of the plasma spiked with test and reference compounds was added into a 96-well sample preparation plate as T″0″ plasma samples. Aliquots were mixed with the same volume of blank buffer (50:50, volume:volume). Samples were quenched with 200 μL of acetonitrile containing internal standard. The dialysis block was covered and a shaken at 60 rpm for 5 hours at 37° C.
After a 5-hour incubation, dialyzed samples were prepared from 25-μL aliquots from both the donor and receiver sides of the dialysis apparatus into new sample preparation plates. The aliquots were mixed with same volume of opposite matrixes. The samples were quenched with 200 μL acetonitrile containing internal standard. All 0-hour and 5-hour samples were vortexed at 600 rpm for 10 min followed by centrifugation at 5594×g for 15 minutes (Thermo Multifuge×3R). Fifty μL of the supernatants were transferred to anew 96-well plate and mixed with 50 μL Milli-Q water. The sample plate was covered and frozen at −20° C. until LC/MS/MS analysis.

Data set [2] is described as follows: Solubility in aqueous solution (deionized, distilled water). The class given is physicochemical. The conditions noted are these: kinetic from dmso stock, 1% DMSO, read-out: Aqueous Solubility H2O. As for the experimental part: (§1) For testing compound solubility in phosphate buffered saline (PBS), compound stock solutions were prepared at 10 mM in 100% DMSO. For testing in aqueous solution, the phosphate buffer was replaced with deionized, distilled water. Eleven grams Na2HPO4 (FW: 141.96 g/mol) and 3.5 g NaH2PO4.2H2O (FW: 156.03 g/mol) was added to 1 L Milli-Q water and adjusted to a pH to 7.4 with phosphoric acid or sodium hydroxide. For incubation, media were preheated to 37° C. Eight μL aliquots of reference and test compound stock solutions (10 mM) were added into 792 μL of 100 mM phosphate buffer (pH 7.4). The final DMSO concentration was 1%. Sample tubes were shaken for 1 hour at 1000 rpm at room temperature.
(§2) The calibration curve was prepared with 300-μM spiking solution (SS) in MeOH:acetonitrile (4:1). Six μL of 10 mM compound was added in 194 μL MeOH/acetonitrile (4:1). Samples were centrifuged for 10 minutes at 12,000 rpm to precipitate undissolved particles. Supernatants were transferred to a new tube or plate and dilute 10-fold and 100-fold with 100 mM buffer. Samples were prepared for LC-MS/MS analysis by adding 5 μL each sample (undiluted, 10-fold diluted, and 100-fold diluted) and 5 μL of standard curve samples to 95 μL of acetonitrile (containing internal standard).

The target of data set [3] is recombinant full-length human hydroxyacid oxidase 1 (HAO1), the equivalent of hGOX (Homo sapiens (Human), UniProt Q9UJM8). As to the kind of experiment: In-vitro human glycolate oxidase (hGOX) assay (Amplex red/HRP fluorescence). The class given is biochemical.
Chain of recombinant full-length human hydroxyacid oxidase 1 (HAO1), the equivalent of hGOX (Q9UJM8 whole entry): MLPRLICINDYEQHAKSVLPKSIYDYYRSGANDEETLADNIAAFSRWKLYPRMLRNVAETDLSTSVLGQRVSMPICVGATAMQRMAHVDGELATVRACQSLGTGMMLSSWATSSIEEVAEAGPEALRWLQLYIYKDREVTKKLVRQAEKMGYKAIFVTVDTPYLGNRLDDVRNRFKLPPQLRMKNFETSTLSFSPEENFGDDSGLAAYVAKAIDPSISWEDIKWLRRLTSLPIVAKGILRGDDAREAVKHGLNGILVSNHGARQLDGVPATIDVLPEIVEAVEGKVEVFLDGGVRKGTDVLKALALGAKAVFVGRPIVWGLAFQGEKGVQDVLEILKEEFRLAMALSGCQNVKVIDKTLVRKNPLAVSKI
Procedure: Biological Activity Assay: In-Vitro Human Glycolate Oxidase (hGOX) Assay
The in-vitro glycolate oxidase assay was performed using recombinant full-length human hydroxyacid oxidase 1 (HAO1), the equivalent of hGOX. […] Purified HAO1 was dissolved in assay buffer consisting of 10 mM NaCl, 110 mM KCl, 2 mM MgCl2, 50 mM HEPES (pH 7.4) and 0.01% Triton™ X-100.
The nature of data set [4]: Solubility in phosphate buffered saline (PBS), pH 7.4. The class given is physicochemical. Conditions: phosphate buffer (PBS), aqueous buffer, kinetic from dmso stock; phosphate buffered saline pH 7.4, 1% DMSO, 1 hour shaking at room temperature. As for the experimental part:
as §1, §2

Data set [5] in a line: Stability in human plasma. The format is in vitro ADME. The conditions noted are these: read-out: Plasma Stability T1/2. As for the experimental part:
Stability in Human Plasma.
Stock compounds were prepared for testing the stability in human plasma. First, 0.05 M sodium phosphate and 0.07 M NaCl buffer, pH 7.4, were pre-heated. In deionized water, 14.505 g/L Na2HPO 12H2O, 1.483 g/L NaH2PO4.2H2O and 4.095 g/L NaCl were dissolved. The basic solution was titrated with the phosphoric acid to pH 7.40. Frozen plasma was quickly thawed at 37° C. The plasma was centrifuged at 3,000 rpm for 8 minutes to remove clots, then pipetted and pooled as the plasma stock for the experiment. Only plasma within the range of pH 7.4 to pH 8 was used. If higher than pH 8, the plasma was discarded. The initial pH of the plasma was not adjusted to pH 7.4 with acid or by bubbling with carbon dioxide. By using a 5% carbon dioxide incubator and PBS buffer, a pH of 7.4 will be reached after the 4-hour equilibrium dialysis time. Plasma was iced until use.
Spiking solution A with 0.5 mM testing compounds was prepared by adding 10 μL of 10 mM test compounds stock solution to 190 μL DMSO. Spiking solution B with 0.02 mM testing compound was prepared by adding 40 μL of spiking solution A to 960 μL of […] sodium phosphate buffer with 0.5% BSA. The plasma and spiking solution B were prewarmed at 37° C. for 5 minutes. Ten μL of pre-warmed spiking solution B was added into the wells designated for all the time points (5, 15, 30, 45, 60 minutes). For the 0-minute timepoint, 400 μL acetonitrile containing internal standard were added to the wells of 0-minute plate and then 90 μL plasma were added. For the other timepoints, 90 μL of pre-warmed plasma were added into the wells (0, 5, 15, 30, 45, 60 minutes) and the timing was started. At 5, 15, 30, 45, 60 minutes, 400 μL acetonitrile containing internal standard were added to the wells of corresponding plates, respectively, to stop the reaction. After quenching, the plates were shaken on a vibrator (IKA, MTS 2/4) for 10 minutes at 600 rpm and then centrifuged at 5594×g for 15 minutes (Thermo Multifuge×3R). Fifty μL of supernatant was transferred from each well into a 96-well sample plate containing 50 μL ultra-pure water (Millipore, ZMQS50F01) for LC/MS analysis.

The nature of data set [6]: Metabolic stability in human liver microsomal preparation. The format is in vitro ADME. Conditions: pH 7.4, human liver microsomes, NADPH, 37° C.; for half-life at 1 μM: 0-45 min, read-out: Metabolic Stability t1/2. As for the experimental part:
For evaluating the metabolic stability in human liver microsomal preparation, three buffers were prepared. Buffer A had 1.0 L of 0.1 M monobasic potassium phosphate buffer containing 1.0 mM EDTA. Buffer B had 1.0 L of 0.1 M dibasic potassium phosphate buffer containing 1.0 mM EDTA. Buffer C had 0.1 M potassium phosphate buffer, 1.0 mM EDTA, adjusted to a pH 7.4 via titrating 700 mL buffer B with buffer A. Reference compound (ketanserin) and test compounds spiking solutions (500 μM) were prepared by adding 10 μL of 10 mM DMSO stock compound solution into 190 μL acetonitrile. A volume of 1.5 μL 500 μM spiking solution and 18.75 μL 20 mg/mL human liver microsomes were added into 479.75 μL of Buffer C on ice. A stock solution of 6 mM NADPH was prepared by dissolving NADPH into Buffer C.
Wells on an assay plate were iced and filled with 30 μL 1.5-μM spiking solution containing 0.75 mg/mL microsomes solution and designated for different timepoints (0-, 5-, 15-, 30-, 45-min). For the 0-min timepoint, 135 μL acetonitrile containing internal standard were added followed by 15 μL of NADPH stock solution (6 mM). All other plates were preincubated at 37° C. for 5 minutes and 15 μL NADPH stock solution (6 mM) were added to the plates to start the reaction. At 5-min, 15-min, 30-min, and 45-min, 135 μL acetonitrile containing internal standard were added to the wells of corresponding plates, respectively, to stop the reaction. After quenching, the plates were shaken on the vibrator (IKA, MTS 2/4) for 10 min at 600 rpm and then centrifuged at 5594×g for 15 minutes (Thermo Multifuge×3R). Fifty μL supernatant from each well were transported into a 96-well sample plate containing 50 μL of ultra-pure water (Millipore, ZMQS50F01) for LC/MS analysis.

Values after ≈ are worked out from the molar mass of the structure shown.

Regarding `O=C(O)c1nn[nH]c1Oc1cccc(-c2ccc3ccccc3c2)c1` [Example I-178, 5-(3-(Naphthalen-2-yl)phenoxy)-1H-1,2,3-triazole-4-carboxylic acid], the recovery at 5 h, 1 μM in data set [1] came to 109%. The solubility at 1 h in data set [2] came out at 83.4 µM (≈ 27.6 µg/mL). Further, the IC50 in data set [3] amounted to 13000 nM. The same molecule had a solubility at 1 h in data set [4] of 97.9 µM (≈ 32.4 µg/mL). The half-life at 2 μM in data set [5] amounted to 0.985 h. Moreover, in data set [6], the intrinsic clearance (CLint scaled) at 1 μM is 7.08 mL/min/kg and the half-life at 1 μM was 4.09 h.
As for `CCC(CC)c1ccc(Oc2[nH]nnc2C(=O)O)cc1` [Example I-272, 5-(4-(Pentan-3-yl)phenoxy)-1H-1,2,3-triazole-4-carboxylic acid], the recovery at 5 h, 1 μM in data set [1] stood at 101%. Further, the solubility at 1 h in data set [2] turned out to be 96.6 µM (≈ 26.6 µg/mL); in data set [4], 103 µM (≈ 28.3 µg/mL). The IC50 in data set [3] was 84 nM. Also, the half-life at 2 μM in data set [5] was determined as 4.61 h. This molecule registered a CLint scaled at 1 μM in data set [6] of 65.3 mL/min/kg. The half-life at 1 μM in data set [6] was 0.443 h.
As for `COc1ccc(-c2ccc(Oc3[nH]nnc3C(=O)O)cc2)cc1OC` [Example I-270, 5-((3′,4′-Dimethoxy-[1,1′-biphenyl]-4-yl)oxy)-1H-1,2,3-triazole-4-carboxylic acid], in data set [1], the recovery at 5 h, 1 μM turned out to be 101% and the fraction unbound at 5 h, 1 μM is 0.008. Moreover, the solubility at 1 h in data set [2] turned out to be 109 µM (≈ 37.2 µg/mL). Besides, the IC50 in data set [3] is 13 nM. Further, in data set [4], the solubility at 1 h was less than 0.2 µM. The half-life at 2 μM in data set [5] came out at 5.2 h. In addition, in data set [6], the CLint scaled at 1 μM was found to be 2.72 mL/min/kg and the half-life at 1 μM amounted to 10.6 h.
For the molecule `O=C(O)c1nn[nH]c1Oc1ccc(-c2ccc3c(c2)OCO3)cc1` [Example I-304, 5-(4-(Benzo[d][1,3]dioxol-5-yl)phenoxy)-1H-1,2,3-triazole-4-carboxylic acid], in data set [1], the recovery at 5 h, 1 μM came out at 105% and the fraction unbound at 5 h, 1 μM was 0.007. In addition, in data set [2], the solubility at 1 h came to 115 µM (≈ 37.4 µg/mL). For the same molecule, in data set [3], the IC50 was determined as 4 nM. For the same molecule, in data set [4], the solubility at 1 h turned out to be 111 µM (≈ 36.2 µg/mL). In addition, the half-life at 2 μM in data set [5] came to 6.68 h. Moreover, in data set [6], the CLint scaled at 1 μM came to 5.47 mL/min/kg and the half-life at 1 μM stood at 5.3 h.
Take `O=C(O)c1nn[nH]c1Sc1ccc2ccccc2c1` [Example I-031, 5-(Naphthalen-2-ylthio)-1H-1,2,3-triazole-4-carboxylic acid]: the recovery at 5 h, 1 μM in data set [1] was determined as 117%. The solubility at 1 h in data set [2] worked out at 110 µM (≈ 29.8 µg/mL). Also, the IC50 in data set [3] amounted to 69 nM. The solubility at 1 h in data set [4] is 121 µM (≈ 32.8 µg/mL). Besides, in data set [5], the half-life at 2 μM amounted to 1.25 h. Further, in data set [6], the CLint scaled at 1 μM was 2.21 mL/min/kg and the half-life at 1 μM came to 13.1 h.
In the case of `O=C(O)c1nn[nH]c1Oc1ccc(S(F)(F)(F)(F)F)cc1` [Example I-049, 5-(4-Pentafluorosulfanylphenoxy)-1H-1,2,3-triazole-4-carboxylic acid], in data set [1], the recovery at 5 h, 1 μM was 107% and the fraction unbound at 5 h, 1 μM was 0.006. Besides, in data set [3], the IC50 turned out to be 50 nM. In addition, the half-life at 2 μM in data set [5] turned out to be 3.65 h.
The matching figures for `COc1ccc(-c2ccc(Oc3[nH]nnc3C(=O)O)cc2)cc1` [Example I-153, 5-((4′-Methoxy-[1,1′-biphenyl]-4-yl)oxy)-1H-1,2,3-triazole-4-carboxylic acid]: 116%, 0.103, 10 nM and 3.11 h.
Consider `Cc1ccc(-c2ccc(Oc3[nH]nnc3C(=O)O)cc2)cc1` [Example I-151, 5-((4′-Methyl-[1,1′-biphenyl]-4-yl)oxy)-1H-1,2,3-triazole-4-carboxylic acid], for which the solubility at 1 h in data set [2] was determined as 53 µM (≈ 15.6 µg/mL); in data set [4] it was 83.2 µM (≈ 24.6 µg/mL). In addition, the IC50 in data set [3] turned out to be 11 nM. Further, in data set [5], the half-life at 2 μM amounted to 0.669 h. In addition, in data set [6], the CLint scaled at 1 μM is less than 0.15 mL/min/kg. In addition, the half-life at 1 μM in data set [6] is greater than 83.3 h.
